Measurements reported in PubChem BioAssay (NCI).
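The compound was tested at five concentrations on cells cultured in 96-well plates, with a 48-hour exposure period. GI50 marks 50% less growth. TGI is the concentration that stops growth completely.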

What was measured:
Experiment in all cases: NCI-60 cell line screen, 48 h
786-0 renal = tested on: 786-0 renal
DU-145 prostate = tested on: DU-145 prostate
HCC-2998 colon = tested on: HCC-2998 colon
MALME-3M melanoma = tested on: MALME-3M melanoma
OVCAR-3 ovarian = tested on: OVCAR-3 ovarian
RPMI-8226 leukemia = tested on: RPMI-8226 leukemia
SF-295 CNS = tested on: SF-295 CNS
SR leukemia = tested on: SR leukemia
BT-549 breast = tested on: BT-549 breast

Compound: O=S(=O)(c1ccc(NC2=NC(c3ccc(O)cc3)(c3ccccc3O)c3ccccc32)cc1)c1ccc(NC2=NC(c3ccc(O)cc3)(c3ccccc3O)c3ccccc32)cc1 (stereo not drawn)
- TGI (786-0 renal): > 28.8 µM
- TGI (DU-145 prostate): > 35.4 µM
- TGI (HCC-2998 colon): 15.4 µM
- TGI (MALME-3M melanoma): 13.1 µM
- TGI (OVCAR-3 ovarian): > 100 µM
- TGI (RPMI-8226 leukemia): > 100 µM
- TGI (SF-295 CNS): > 53.2 µM
- TGI (SR leukemia): > 49.6 µM

Compound: Cc1ccc2c(=O)cc(-c3ccc(Cl)s3)[nH]c2n1
- TGI (786-0 renal): > 80.4 µM
- TGI (DU-145 prostate): > 100 µM
- TGI (HCC-2998 colon): 25.9 µM
- TGI (MALME-3M melanoma): > 100 µM
- TGI (OVCAR-3 ovarian): > 100 µM
- TGI (RPMI-8226 leukemia): 4.08 µM
- TGI (SF-295 CNS): 4.85 µM
- TGI (SR leukemia): > 76.2 µM

Compound: Cc1cc(F)ccc1S(=O)(=O)Nc1cc(-c2c(O)ccc3ccccc23)c(O)c2ccccc12
- GI50 (BT-549 breast): 3.04 µM
- TGI (BT-549 breast): 10.8 µM
- GI50 (DU-145 prostate): 4.09 µM
- TGI (DU-145 prostate): 14.4 µM
- GI50 (HCC-2998 colon): 2.17 µM
- TGI (HCC-2998 colon): 4.38 µM
- GI50 (MALME-3M melanoma): 3.27 µM
- TGI (MALME-3M melanoma): 12.1 µM
- GI50 (OVCAR-3 ovarian): 2.67 µM
- TGI (OVCAR-3 ovarian): 10.3 µM
- GI50 (RPMI-8226 leukemia): 2.89 µM
- TGI (RPMI-8226 leukemia): 24 µM
- GI50 (SF-295 CNS): 3.02 µM
- TGI (SF-295 CNS): 10.3 µM
- GI50 (SR leukemia): 3.21 µM
- TGI (SR leukemia): 19.3 µM

Compound: CC1CCCC2(CC[N+](C)(CCC[N+](C)(C)C)CC2)C1 (stereo not drawn)
- TGI (786-0 renal): > 100 µM
- TGI (BT-549 breast): > 100 µM
- TGI (DU-145 prostate): > 100 µM
- TGI (MALME-3M melanoma): > 100 µM
- TGI (OVCAR-3 ovarian): > 100 µM
- TGI (RPMI-8226 leukemia): > 100 µM
- TGI (SF-295 CNS): > 100 µM
- TGI (SR leukemia): > 100 µM

Compound: C[C@H](NC(=O)C(Cc1ccccc1)(Cc1ccc(O)cn1)NC(=O)c1ccccc1)c1ccccc1 (stereo partly drawn)
- TGI (786-0 renal): 31.3 µM
- TGI (BT-549 breast): 36.9 µM
- TGI (DU-145 prostate): 35.5 µM
- TGI (HCC-2998 colon): 30.8 µM
- TGI (MALME-3M melanoma): 37.6 µM
- TGI (OVCAR-3 ovarian): 28.7 µM
- TGI (RPMI-8226 leukemia): > 100 µM
- TGI (SF-295 CNS): 29 µM

Compound: Nc1ccc(S(=O)(=O)c2ccc(NCN3C(=O)NC(=O)C(=O)C3=O)cc2)cc1
- TGI (786-0 renal): > 100 µM
- TGI (BT-549 breast): > 100 µM
- TGI (HCC-2998 colon): > 100 µM
- TGI (MALME-3M melanoma): > 100 µM
- TGI (OVCAR-3 ovarian): > 100 µM
- TGI (SF-295 CNS): > 100 µM
- TGI (SR leukemia): > 100 µM

Compound: COc1ccc(N2C(=O)CC(=O)N(C(=O)COc3ccc(OCC(=O)N4C(=O)CC(=O)N(c5ccc(OC)cc5)C4=S)cc3)C2=S)cc1
- TGI (786-0 renal): > 100 µM
- TGI (BT-549 breast): > 100 µM
- TGI (DU-145 prostate): > 100 µM
- TGI (HCC-2998 colon): > 100 µM
- TGI (MALME-3M melanoma): > 100 µM
- TGI (RPMI-8226 leukemia): > 100 µM
- TGI (SF-295 CNS): > 100 µM

Compound: C[n+]1cccc2c(=O)c3ccccc3oc21
- TGI (DU-145 prostate): > 100 µM
- TGI (HCC-2998 colon): > 100 µM
- TGI (MALME-3M melanoma): > 100 µM
- TGI (OVCAR-3 ovarian): > 100 µM
- TGI (SF-295 CNS): > 100 µM
- TGI (SR leukemia): > 100 µM

Compound: Cc1cc(C)nc(SC2=C(Nc3ccc(C)c(Cl)c3)C(=O)N(Cc3ccccc3)C2=O)n1
- GI50 (BT-549 breast): > 160 µM
- TGI (BT-549 breast): > 160 µM
- GI50 (DU-145 prostate): > 160 µM
- TGI (DU-145 prostate): > 160 µM
- GI50 (HCC-2998 colon): > 160 µM
- TGI (HCC-2998 colon): > 160 µM
- GI50 (MALME-3M melanoma): > 160 µM
- TGI (MALME-3M melanoma): > 160 µM
- GI50 (OVCAR-3 ovarian): > 160 µM
- TGI (OVCAR-3 ovarian): > 160 µM

Compound: CC(=C(c1ccccc1)c1ccccc1)N1C(=O)CC(=O)N1C
- TGI (BT-549 breast): > 100 µM
- TGI (DU-145 prostate): > 100 µM
- TGI (HCC-2998 colon): > 100 µM
- TGI (OVCAR-3 ovarian): > 100 µM
- TGI (RPMI-8226 leukemia): > 100 µM
- TGI (SF-295 CNS): > 100 µM

Compound: O=c1cc(N2CCCC2)[nH]c(=O)n1Cc1ccccc1
- TGI (786-0 renal): > 100 µM
- TGI (BT-549 breast): > 100 µM
- TGI (DU-145 prostate): > 100 µM
- TGI (HCC-2998 colon): > 100 µM
- TGI (MALME-3M melanoma): > 100 µM
- TGI (RPMI-8226 leukemia): > 100 µM
- TGI (SF-295 CNS): > 100 µM
- TGI (SR leukemia): > 100 µM

Compound: CN(C)c1nc(N)nc(CS)n1
- TGI (786-0 renal): > 100 µM
- TGI (BT-549 breast): > 100 µM
- TGI (DU-145 prostate): > 100 µM
- TGI (HCC-2998 colon): > 100 µM
- TGI (OVCAR-3 ovarian): > 100 µM
- TGI (RPMI-8226 leukemia): > 100 µM
- TGI (SF-295 CNS): > 100 µM
- TGI (SR leukemia): > 100 µM

Compound: O=C1C[C@@H](C(=O)OCc2ccccc2)NC(=O)C[C@@H](C(=O)OCc2ccccc2)NC(=O)C[C@@H](C(=O)OCc2ccccc2)N1
- TGI (786-0 renal): > 100 µM
- TGI (BT-549 breast): > 100 µM
- TGI (DU-145 prostate): > 100 µM
- TGI (HCC-2998 colon): > 100 µM
- TGI (OVCAR-3 ovarian): > 100 µM
- TGI (RPMI-8226 leukemia): > 100 µM
- TGI (SF-295 CNS): > 100 µM
- TGI (SR leukemia): 20.7 µM

Compound: C=C[C@@H](C)[C@H](NS(=O)(=O)c1ccc(C)cc1)C(=O)OCC
- TGI (786-0 renal): > 100 µM
- TGI (BT-549 breast): > 100 µM
- TGI (DU-145 prostate): > 100 µM
- TGI (MALME-3M melanoma): > 100 µM
- TGI (OVCAR-3 ovarian): 43.1 µM
- TGI (RPMI-8226 leukemia): 35.5 µM
- TGI (SF-295 CNS): 63.4 µM
- TGI (SR leukemia): > 100 µM

Compound: COC(=O)C1CCC(=S)N1C(=O)c1ccccc1 (stereo not drawn)
- TGI (786-0 renal): > 100 µM
- TGI (BT-549 breast): > 100 µM
- TGI (DU-145 prostate): > 100 µM
- TGI (HCC-2998 colon): > 100 µM
- TGI (MALME-3M melanoma): > 100 µM
- TGI (OVCAR-3 ovarian): > 100 µM
- TGI (RPMI-8226 leukemia): > 100 µM
- TGI (SF-295 CNS): > 100 µM

Compound: CC(C)=NN/C(=N\S(=O)(=O)c1ccc(Oc2cccc(Cl)c2C#N)cc1)Nc1ccc(Cl)cc1
- TGI (786-0 renal): > 100 µM
- TGI (BT-549 breast): > 100 µM
- TGI (DU-145 prostate): > 100 µM
- TGI (MALME-3M melanoma): > 100 µM
- TGI (OVCAR-3 ovarian): > 100 µM
- TGI (RPMI-8226 leukemia): > 100 µM
- TGI (SF-295 CNS): > 100 µM

Compound: CC(NC(=O)C(NC(=O)CNC(=O)OC(C)(C)C)C(C)C)C(=O)Oc1c(Cl)c(Cl)c(Cl)c(Cl)c1Cl (stereo not drawn)
- TGI (BT-549 breast): 51.2 µM
- TGI (DU-145 prostate): 49.3 µM
- TGI (HCC-2998 colon): 39.4 µM
- TGI (MALME-3M melanoma): 49.4 µM
- TGI (OVCAR-3 ovarian): 28.5 µM
- TGI (RPMI-8226 leukemia): > 100 µM
- TGI (SF-295 CNS): 34.3 µM
- TGI (SR leukemia): > 100 µM

Compound: OCC(O)C(O)C(O)C(O)c1nc2ccc(Cl)cc2[nH]1 (stereo not drawn)
- TGI (786-0 renal): > 100 µM
- TGI (BT-549 breast): > 100 µM
- TGI (DU-145 prostate): > 100 µM
- TGI (HCC-2998 colon): > 100 µM
- TGI (MALME-3M melanoma): > 100 µM
- TGI (OVCAR-3 ovarian): > 100 µM
- TGI (RPMI-8226 leukemia): > 100 µM
- TGI (SF-295 CNS): > 100 µM

Compound: CC1C(=O)N(c2ccccc2)NC12CCCc1ccccc12 (stereo not drawn)
- TGI (BT-549 breast): > 100 µM
- TGI (DU-145 prostate): > 100 µM
- TGI (HCC-2998 colon): > 100 µM
- TGI (MALME-3M melanoma): > 100 µM
- TGI (OVCAR-3 ovarian): > 100 µM
- TGI (RPMI-8226 leukemia): > 100 µM
- TGI (SF-295 CNS): > 100 µM
- TGI (SR leukemia): > 100 µM

Compound: OC1(c2ccccc2)CCN(Cc2c[nH]c3ccccc23)CC1
- TGI (786-0 renal): > 100 µM
- TGI (BT-549 breast): > 100 µM
- TGI (DU-145 prostate): > 100 µM
- TGI (HCC-2998 colon): 31.6 µM
- TGI (MALME-3M melanoma): 52.4 µM
- TGI (OVCAR-3 ovarian): > 100 µM
- TGI (RPMI-8226 leukemia): > 100 µM
- TGI (SF-295 CNS): > 100 µM

Compound: CC(C)CNc1nc2ncnc(N)c2[nH]1
- TGI (786-0 renal): > 100 µM
- TGI (BT-549 breast): > 100 µM
- TGI (DU-145 prostate): > 100 µM
- TGI (HCC-2998 colon): > 100 µM
- TGI (MALME-3M melanoma): > 100 µM
- TGI (OVCAR-3 ovarian): > 100 µM
- TGI (RPMI-8226 leukemia): > 100 µM
- TGI (SF-295 CNS): > 100 µM

Compound: COC(OC)[C@@H]1OC[C@H](n2cnc3c(N)ncnc32)[C@H]1O
- TGI (786-0 renal): > 100 µM
- TGI (BT-549 breast): > 100 µM
- TGI (DU-145 prostate): > 100 µM
- TGI (HCC-2998 colon): > 100 µM
- TGI (OVCAR-3 ovarian): > 100 µM
- TGI (RPMI-8226 leukemia): > 100 µM
- TGI (SF-295 CNS): > 100 µM
- TGI (SR leukemia): > 100 µM

Compound: CO/N=C1\CC(NC(=O)CNC(=O)OC(C)(C)C)c2ccsc21 (stereo not drawn)
- TGI (BT-549 breast): > 100 µM
- TGI (DU-145 prostate): > 100 µM
- TGI (HCC-2998 colon): > 100 µM
- TGI (MALME-3M melanoma): > 100 µM
- TGI (OVCAR-3 ovarian): > 100 µM
- TGI (SF-295 CNS): > 100 µM
- TGI (SR leukemia): > 100 µM

Compound: CC1(C)N/C(=C\C=O)C(C)(C)N1O
- TGI (DU-145 prostate): > 100 µM
- TGI (HCC-2998 colon): > 100 µM
- TGI (MALME-3M melanoma): > 100 µM
- TGI (OVCAR-3 ovarian): > 100 µM
- TGI (RPMI-8226 leukemia): > 100 µM
- TGI (SF-295 CNS): > 100 µM
- TGI (SR leukemia): > 100 µM
